Reference: ChEMBL document CHEMBL5608186, “Design, synthesis and structure-activity relationships of novel non-ketolides: 9-Oxime clarithromycin featured with seven-to thirteen-atom-length diamine linkers at 3-OH” (Eur J Med Chem, 2024)
≈ marks a conversion by molar mass, not a printed value.

Columns and labels:
Escherichia coli [1] = experiment: Antibacterial activity against wild-type Escherichia coli SQ110 DTC incubated for 16 to 20 hrs by CLSI based broth microdilution method; assay type: functional; settings: time 16-20 hrs
Escherichia coli [2] = experiment: Antibacterial activity against Escherichia coli SQ110 DTC harboring 23S rRNA A2058G mutant incubated for 16 to 20 hrs by CLSI based broth microdilution method; assay type: functional; settings: time 16-20 hrs
Escherichia coli [3] = experiment: Selectivity ratio of MIC for Escherichia coli SQ110 DTC harboring 23S rRNA A2058G mutant to MIC for wild-type Escherichia coli SQ110 DTC; assay type: functional
Escherichia coli [4] = experiment: Antibacterial activity against Escherichia coli SQ110 DTC harboring Gyr A Ser83Leu mutant incubated for 16 to 20 hrs by CLSI based broth microdilution method; assay type: functional; settings: time 16-20 hrs
Escherichia coli [5] = experiment: Selectivity ratio of MIC for Escherichia coli SQ110 DTC harboring Gyr A Ser83Leu mutant to MIC for wild-type Escherichia coli SQ110 DTC; assay type: functional
Escherichia coli [6] = experiment: Antibacterial activity against Escherichia coli SQ110 DTC harboring 23S rRNA A2058G/Gyr A Ser83Leu mutant incubated for 16 to 20 hrs by CLSI based broth microdilution method; assay type: functional; settings: time 16-20 hrs
Escherichia coli [7] = experiment: Selectivity ratio of MIC for Escherichia coli SQ110 DTC harboring 23S rRNA A2058G/Gyr A Ser83Leu mutant to MIC for wild-type Escherichia coli SQ110 DTC; assay type: functional
[8] = Inhibition of Escherichia coli DNA supercoiling assessed as reduction in protein synthesis by firefly luciferase gene assay; assay type: functional
Staphylococcus aureus [9] = experiment: Bactericidal activity against methicillin-resistant Staphylococcus aureus PU 20 harboring c-ermA gene incubated for 16 to 20 hrs by CLSI based broth microdilution method; assay type: functional; settings: time 16-20 hrs
Staphylococcus aureus [10] = experiment: Antibacterial activity against methicillin-resistant Staphylococcus aureus PU 20 harboring c-ermA gene incubated for 16 to 20 hrs by CLSI based broth microdilution method; assay type: functional; settings: time 16-20 hrs
Staphylococcus aureus [11] = experiment: Selectivity ratio of MBC for methicillin-resistant Staphylococcus aureus PU 32 harboring i-ermA gene to MIC for methicillin-resistant Staphylococcus aureus PU 32 harboring i-ermA gene; assay type: functional
Staphylococcus aureus [12] = experiment: Bactericidal activity against methicillin-resistant Staphylococcus aureus PU 32 harboring i-ermA gene incubated for 16 to 20 hrs by CLSI based broth microdilution method; assay type: functional; settings: time 16-20 hrs
Staphylococcus aureus [13] = experiment: Antibacterial activity against methicillin-resistant Staphylococcus aureus PU 32 harboring i-ermA gene incubated for 16 to 20 hrs by CLSI based broth microdilution method; assay type: functional; settings: time 16-20 hrs
Streptococcus pyogenes [14] = experiment: Selectivity ratio of MBC for Streptococcus pyogenes 01-968 harboring i-ermB gene to MIC for Streptococcus pyogenes 01-968 harboring i-ermB gene; assay type: functional
Streptococcus pyogenes [15] = experiment: Bactericidal activity against Streptococcus pyogenes 01-968 harboring i-ermB gene incubated for 16 to 20 hrs by CLSI based broth microdilution method; assay type: functional; settings: time 16-20 hrs
Streptococcus pyogenes [16] = experiment: Antibacterial activity against Streptococcus pyogenes 01-968 harboring i-ermB gene incubated for 16 to 20 hrs by CLSI based broth microdilution method; assay type: functional; settings: time 16-20 hrs
Haemophilus influenzae [17] = experiment: Selectivity ratio of MBC for Haemophilus influenzae ATCC 49247 to MIC for Haemophilus influenzae ATCC 49247; assay type: functional
Haemophilus influenzae [18] = experiment: Bactericidal activity against Haemophilus influenzae ATCC 49247 incubated for 16 to 20 hrs by CLSI based broth microdilution method; assay type: functional; settings: time 16-20 hrs
Haemophilus influenzae [19] = experiment: Antibacterial activity against Haemophilus influenzae ATCC 49247 incubated for 16 to 20 hrs by CLSI based broth microdilution method; assay type: functional; settings: time 16-20 hrs
Streptococcus pneumoniae [20] = experiment: Selectivity ratio of MBC for Streptococcus pneumoniae 07P390 harboring c-erm gene to MIC for Streptococcus pneumoniae 07P390 harboring c-erm gene; assay type: functional
Streptococcus pneumoniae [21] = experiment: Bactericidal activity against Streptococcus pneumoniae 07P390 harboring c-erm gene incubated for 16 to 20 hrs by CLSI based broth microdilution method; assay type: functional; settings: time 16-20 hrs
Streptococcus pneumoniae [22] = experiment: Antibacterial activity against Streptococcus pneumoniae 07P390 harboring c-erm gene incubated for 16 to 20 hrs by CLSI based broth microdilution method; assay type: functional; settings: time 16-20 hrs
Streptococcus pneumoniae [23] = experiment: Bactericidal activity against Streptococcus pneumoniae PU 09 harboring mef gene incubated for 16 to 20 hrs by CLSI based broth microdilution method; assay type: functional; settings: time 16-20 hrs
Streptococcus pneumoniae [24] = experiment: Selectivity ratio of MBC for Streptococcus pneumoniae ATCC 49619 to MIC for Streptococcus pneumoniae ATCC 49619; assay type: functional
Streptococcus pneumoniae [25] = experiment: Antibacterial activity against Streptococcus pneumoniae PU 09 harboring mef gene incubated for 16 to 20 hrs by CLSI based broth microdilution method; assay type: functional; settings: time 16-20 hrs
Streptococcus pneumoniae [26] = experiment: Bactericidal activity against Streptococcus pneumoniae ATCC 49619 incubated for 16 to 20 hrs by CLSI based broth microdilution method; assay type: functional; settings: time 16-20 hrs
Streptococcus pneumoniae [27] = experiment: Antibacterial activity against Streptococcus pneumoniae ATCC 49619 incubated for 16 to 20 hrs by CLSI based broth microdilution method; assay type: functional; settings: time 16-20 hrs
DNA gyrase = DNA gyrase (Escherichia coli, UniProt P0AES4+P0AES6); experiment: Inhibition of Escherichia coli DNA gyrase using pBR322 DNA as substrate incubated for 30 mins by electrophoresis; assay type: protein-complex assay
[28] = Metabolic stability in Escherichia coli SQ110 DTC assessed as unchanged drug at 5 to 10 times MIC measured after 60 mins by LC-MS/MS analysis; assay type: ADME; settings: Escherichia coli SQ110 DTC cells, read-out: Stability
[29] = Metabolic stability in rat liver microsomes assessed as unchanged drug at 1 uM incubated upto 60 mins in presence of NADPH by LC-MS/MS analysis; assay type: ADME, Microsome; settings: read-out: Stability
[30] = Metabolic stability in human liver microsomes assessed as unchanged drug at 1 uM incubated upto 60 mins in presence of NADPH by LC-MS/MS analysis; assay type: ADME, Microsome; settings: read-out: Stability
[31] = Metabolic stability in human liver microsomes assessed as half life at 1 uM incubated upto 60 mins in presence of NADPH by LC-MS/MS analysis; assay type: ADME, Microsome
[32] = Metabolic stability in human liver microsomes assessed as intrinsic clearance in liver at 1 uM incubated upto 60 mins in presence of NADPH by LC-MS/MS analysis; assay type: ADME, Microsome; settings: read-out: CLH
HEK-293T = experiment: Cytotoxicity against HEK293T cells assessed as cell viability at 5 to 50 uM incubated for 48 hrs by CCK8 assay; assay type: toxicity, cell-based; settings: human, dose 5-50 µM
HepG2 = experiment: Cytotoxicity against human HepG2 cells assessed as cell viability at 5 to 50 uM incubated for 48 hrs by CCK8 assay; assay type: toxicity, cell-based; settings: hepg2, 48 h, dose 5-50 µM

## CC[C@H]1OC(=O)[C@H](C)[C@@H](O[C@H]2C[C@@](C)(OC)[C@@H](O)[C@H](C)O2)[C@H](C)[C@@H](O[C@@H]2O[C@H](C)C[C@H](N(C)C)[C@H]2O)[C@](C)(O)C[C@@H](C)C(=O)[C@H](C)[C@@H](O)[C@]1(C)O [ERYTHROMYCIN]
Escherichia coli [1]
  MIC: 2 µg/mL (≈ 2.73 µM)
Escherichia coli [2]
  MIC: > 128 µg/mL
Escherichia coli [3]
  Selectivity ratio: >64
Escherichia coli [4]
  MIC: 2 µg/mL (≈ 2.73 µM)
Escherichia coli [5]
  Selectivity ratio: 1
Escherichia coli [6]
  MIC: > 128 µg/mL
Escherichia coli [7]
  Selectivity ratio: >64
[8]
  IC50: 1100 nM

## CC[C@H]1OC(=O)[C@H](C)[C@@H](OC(=O)CCNCCCCNc2cc3c(cc2F)c(=O)c(C(=O)O)cn3C2CC2)[C@H](C)[C@@H](O[C@@H]2O[C@H](C)C[C@H](N(C)C)[C@H]2O)[C@](C)(OC)C[C@@H](C)/C(=N\OCC#Cc2cncc(C(=O)NC)c2)[C@H](C)[C@H]2OC(=O)O[C@@]21C
Staphylococcus aureus [9]
  MBC: > 256 µg/mL
Staphylococcus aureus [10]
  MIC: > 256 µg/mL
Staphylococcus aureus [11]
  Selectivity ratio: 1
Staphylococcus aureus [12]
  MBC: 32 µg/mL (≈ 26.9 µM)
Staphylococcus aureus [13]
  MIC: 32 µg/mL (≈ 26.9 µM)
Streptococcus pyogenes [14]
  Selectivity ratio: >8
Streptococcus pyogenes [15]
  MBC: > 0.5 µg/mL
Streptococcus pyogenes [16]
  MIC: 0.06 µg/mL (≈ 0.0504 µM)
Haemophilus influenzae [17]
  Selectivity ratio: 2
Haemophilus influenzae [18]
  MBC: 4 µg/mL (≈ 3.36 µM)
Haemophilus influenzae [19]
  MIC: 2 µg/mL (≈ 1.68 µM)
Streptococcus pneumoniae [20]
  Selectivity ratio: 8
Streptococcus pneumoniae [21]
  MBC: 1 µg/mL (≈ 0.84 µM)
Streptococcus pneumoniae [22]
  MIC: 0.12 µg/mL (≈ 0.101 µM)
Streptococcus pneumoniae [23]
  MBC: 0.008 µg/mL (≈ 0.00672 µM)
Streptococcus pneumoniae [24]
  Selectivity ratio: >=1
Streptococcus pneumoniae [25]
  MIC: ≤ 0.008 µg/mL
Streptococcus pneumoniae [26]
  MBC: 0.008 µg/mL (≈ 0.00672 µM)
Streptococcus pneumoniae [27]
  MIC: ≤ 0.008 µg/mL
Escherichia coli [1]
  MIC: 4 µg/mL (≈ 3.36 µM)
Escherichia coli [2]
  MIC: 4 µg/mL (≈ 3.36 µM)
Escherichia coli [3]
  Selectivity ratio: 1
Escherichia coli [4]
  MIC: 8 µg/mL (≈ 6.72 µM)
Escherichia coli [5]
  Selectivity ratio: 2
Escherichia coli [6]
  MIC: > 128 µg/mL
Escherichia coli [7]
  Selectivity ratio: >32
[8]
  IC50: 740 nM
DNA gyrase
  IC50: 11900 nM
[28]
  remaining at 1 h: 84.3%
[29]
  remaining at 1 h, 1 µM: 70.6%
[30]
  remaining at 1 h, 1 µM: 91.3%
[31]
  half-life at 1 µM: 7.65 h
[32]
  CLint scaled at 1 µM: 2.7 mL/min/kg
HEK-293T
  Activity: Non-Toxic
HepG2
  Activity: Non-Toxic
